Source: PMC11557892, “Structural basis of MICAL autoinhibition” (Nature Communications, 2024)

T1: human MICAL1 (Homo sapiens, UniProt Q8TDZ2)
T1 construct: full length M1-G1067, C-terminal 3C-His8 tag, baculovirus-infected Sf9 cells
T1 sequence (Q8TDZ2 1-1067): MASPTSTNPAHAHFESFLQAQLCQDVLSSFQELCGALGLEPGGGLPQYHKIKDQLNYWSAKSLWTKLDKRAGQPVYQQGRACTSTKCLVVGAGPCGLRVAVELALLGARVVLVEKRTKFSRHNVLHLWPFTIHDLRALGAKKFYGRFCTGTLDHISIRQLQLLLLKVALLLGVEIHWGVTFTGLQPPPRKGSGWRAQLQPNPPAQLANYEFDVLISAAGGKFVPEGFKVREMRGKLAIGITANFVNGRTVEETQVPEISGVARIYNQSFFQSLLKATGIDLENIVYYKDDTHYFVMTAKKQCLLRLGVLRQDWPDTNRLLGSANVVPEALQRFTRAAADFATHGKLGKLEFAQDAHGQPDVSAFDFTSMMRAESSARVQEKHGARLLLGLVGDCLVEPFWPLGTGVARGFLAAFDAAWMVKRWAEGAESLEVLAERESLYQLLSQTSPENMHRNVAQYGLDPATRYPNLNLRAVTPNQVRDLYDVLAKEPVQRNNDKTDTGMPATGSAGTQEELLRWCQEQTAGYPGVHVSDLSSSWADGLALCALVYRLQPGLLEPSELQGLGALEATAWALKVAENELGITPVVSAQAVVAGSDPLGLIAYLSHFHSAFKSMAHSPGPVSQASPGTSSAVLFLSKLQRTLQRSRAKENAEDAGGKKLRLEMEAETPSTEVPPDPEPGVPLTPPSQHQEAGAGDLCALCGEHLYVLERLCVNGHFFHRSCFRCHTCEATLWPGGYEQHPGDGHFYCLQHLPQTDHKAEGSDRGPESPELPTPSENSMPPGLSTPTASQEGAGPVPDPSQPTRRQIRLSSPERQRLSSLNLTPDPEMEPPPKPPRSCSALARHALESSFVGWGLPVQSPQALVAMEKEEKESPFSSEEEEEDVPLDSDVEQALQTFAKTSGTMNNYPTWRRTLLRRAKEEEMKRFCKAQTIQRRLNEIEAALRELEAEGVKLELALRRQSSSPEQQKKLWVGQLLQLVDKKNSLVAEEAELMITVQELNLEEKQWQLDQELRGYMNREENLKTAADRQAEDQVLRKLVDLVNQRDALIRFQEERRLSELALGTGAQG

T2: human MICAL1^ΔCC (residues M1-A917) (human, UniProt Q8TDZ2 1-917)
T2 construct: human MICAL1 lacking the CC domain, residues M1-A917 (MO, L1, CH, L2, LIM, L3); also called MICAL^ΔCC; source: baculovirus-infected Sf9 cells, purified (HisTrap FF, Superdex 200)
T2 sequence (looked up): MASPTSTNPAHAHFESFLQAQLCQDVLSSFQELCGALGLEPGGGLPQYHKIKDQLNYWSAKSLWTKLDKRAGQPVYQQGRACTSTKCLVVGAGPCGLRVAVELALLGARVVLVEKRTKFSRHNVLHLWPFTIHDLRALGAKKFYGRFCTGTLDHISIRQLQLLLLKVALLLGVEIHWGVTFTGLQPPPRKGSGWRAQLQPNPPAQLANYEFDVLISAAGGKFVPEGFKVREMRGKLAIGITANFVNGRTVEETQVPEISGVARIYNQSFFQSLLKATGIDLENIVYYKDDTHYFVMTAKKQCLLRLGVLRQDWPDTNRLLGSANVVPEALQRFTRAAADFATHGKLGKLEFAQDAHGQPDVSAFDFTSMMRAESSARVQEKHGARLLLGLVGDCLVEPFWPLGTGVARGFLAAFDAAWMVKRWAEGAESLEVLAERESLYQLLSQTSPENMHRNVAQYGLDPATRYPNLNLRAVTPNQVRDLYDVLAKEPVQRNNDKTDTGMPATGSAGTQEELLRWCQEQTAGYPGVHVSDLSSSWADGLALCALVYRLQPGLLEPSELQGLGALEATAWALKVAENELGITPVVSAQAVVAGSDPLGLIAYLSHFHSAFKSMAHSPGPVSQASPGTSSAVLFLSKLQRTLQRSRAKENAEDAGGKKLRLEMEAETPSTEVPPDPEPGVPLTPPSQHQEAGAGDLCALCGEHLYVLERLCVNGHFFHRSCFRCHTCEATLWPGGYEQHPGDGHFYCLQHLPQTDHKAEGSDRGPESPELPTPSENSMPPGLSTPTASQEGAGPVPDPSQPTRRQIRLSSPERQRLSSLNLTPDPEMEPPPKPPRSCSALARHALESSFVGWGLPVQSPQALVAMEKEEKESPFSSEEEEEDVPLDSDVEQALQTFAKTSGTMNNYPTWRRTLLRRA

B1: biotinylated human MICAL1^CC (residues K918-G1067) (domain or fragment, UniProt Q8TDZ2 918-1067, looked up)
chain: KEEEMKRFCKAQTIQRRLNEIEAALRELEAEGVKLELALRRQSSSPEQQKKLWVGQLLQLVDKKNSLVAEEAELMITVQELNLEEKQWQLDQELRGYMNREENLKTAADRQAEDQVLRKLVDLVNQRDALIRFQEERRLSELALGTGAQG
modifications: biotin on the Avi tag (biotinylated in vivo)
notes: human MICAL1 coiled-coil (CC) domain, residues K918-G1067; The BLI construct; also called CC domain; coiled-coil domain; source: E. coli BL21(DE3)BirA, biotinylated in vivo, purified (HisTrap Talon, Superdex 200); not shown: Avi tag, C-terminal, kept

What was measured:
human MICAL1 = target: T1, human MICAL1; test: cryo-EM structure, […] Å; format: binding; conditions: oxidized state, planar isoalloxazine ring; co-purified, non-covalent; deep cavity of MO domain, stacking with Trp400; autoinhibited full-length enzyme
[1] = target: T2, human MICAL1^ΔCC (residues M1-A917); test: BLI; biotinylated CC domain immobilised (8.8 µg/ml) on Octet SAX biosensors, MO or MICAL1^ΔCC as analyte; 20 mM HEPES pH 7.4, 150 mM NaCl, 2 mM DTT, 2 mM MgCl2, 0.05% Tween 20, 20 °C; duplicates; conditions: both partners purified

| Molecule | cryo-EM structure, 3.1 Å (human MICAL1) | Kd [1] [µM] |
| --- | --- | --- |
| Cc1cc2nc3c(=O)[nH]c(=O)nc-3n(C[C@H](O)[C@H](O)[C@H](O)COP(=O)(O)OP(=O)(O)OC[C@H]3O[C@@H](n4cnc5c(N)ncnc54)[C@H](O)[C@@H]3O)c2cc1C [FAD] | A deep cavity located between these subdomains is partially occupied by the FAD cofactor |  |
| B1 |  | 0.58 ± 0.17 |
